pKi: −log10 of the molar value. Active and inactive are the calls of the source. The rule behind the calls is not given here.
Experiments:
Mus musculus [1] = experiment: Inhibition of mCPP-induced hypomotility in ip dosed NMRI mouse assessed as rearing count up to 60 mins; format: functional; details: 1 h
[2] = target: T1, 5-hydroxytryptamine receptor 2C (Rattus norvegicus, UniProt P08909); experiment: Displacement of [3H]mesulergine from 5HT2C in Sprague-Dawley rat whole brain membranes after 1 hr by liquid scintillation spectrometry; format: tissue-based, Membrane
T1 sequence (P08909 whole entry): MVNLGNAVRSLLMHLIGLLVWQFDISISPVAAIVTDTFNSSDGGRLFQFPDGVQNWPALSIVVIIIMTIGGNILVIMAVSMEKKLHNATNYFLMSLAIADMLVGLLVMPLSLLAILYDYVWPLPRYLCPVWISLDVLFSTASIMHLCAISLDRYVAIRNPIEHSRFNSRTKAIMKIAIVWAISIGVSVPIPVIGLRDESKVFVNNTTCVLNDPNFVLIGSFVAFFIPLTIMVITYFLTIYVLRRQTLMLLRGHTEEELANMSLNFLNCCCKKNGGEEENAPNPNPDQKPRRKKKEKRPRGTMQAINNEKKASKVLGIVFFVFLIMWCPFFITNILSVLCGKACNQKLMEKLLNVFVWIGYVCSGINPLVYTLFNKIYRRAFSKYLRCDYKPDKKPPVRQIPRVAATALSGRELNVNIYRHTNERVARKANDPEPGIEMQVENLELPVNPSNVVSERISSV

[3] = Intrinsic clearance in mouse liver microsomes at 2.5 uM; format: ADME
[4] = target: Sodium-dependent serotonin transporter (Rattus norvegicus, UniProt P31652); experiment: Displacement of [3H]citalopram from SERT in Sprague-Dawley rat whole brain membranes after 1 hr by liquid scintillation spectrometry; format: tissue-based, Membrane
[5] = target: 5-hydroxytryptamine receptor 2A (Rattus norvegicus, UniProt P14842); experiment: Displacement of [3H]ketanserin from 5HT2A in Wistar rat frontal cortex membranes after 1 hr by liquid scintillation spectrometry; format: cell membranes, Membrane
Liver microsome = experiment: Intrinsic clearance in human liver microsomes at 2.5 uM; format: ADME
[6] = target: 5-hydroxytryptamine receptor 1A (Homo sapiens) (UniProt P08908); experiment: Displacement of [3H]-8-OH-DPAT from human 5HT1A receptor at 1 uM
[7] = Efflux ratio of the compound from apical to basolateral side to basolateral to apical side in human vinblastine-treated Caco2 cells; format: ADME, cell-based; details: caco-2
[8] = target: 5-hydroxytryptamine receptor 2B (Homo sapiens) (UniProt P41595); experiment: Displacement of [3H]-LSD from human 5HT2B receptor at 1 uM
Mus musculus [9] = experiment: Potentiation of mCPP-induced hypomotility in NMRI mouse at 20 to 40 mg/kg, ip up to 60 mins; format: ADME, organism-based; details: in vivo, 1 h
[10] = target: T2, 5-hydroxytryptamine receptor 2A (Homo sapiens, UniProt P28223); experiment: Antagonist activity at human 5-HT2A receptor expressed in CHO-K1 cells assessed as inhibition of 5HT-induced Ca2+ release at 10 uM by fluorometry assay; format: functional, cell-based
Mus musculus [11] = experiment: Inhibition of mCPP-induced hypomotility in NMRI mouse assessed as reductiion in vertical hypoactivity at 20 to 40 mg/kg, ip up to 60 mins; format: functional, organism-based
Mus musculus [12] = experiment: Induction of motor depression in C57BL/6J mouse assessed as total duration of immobility was measured over a period of 6 mins at 20 to 80 mg/kg, ip by tail suspension test; format: organism-based; details: in vivo, 0.1 h
[13] = target: T3, 5-hydroxytryptamine receptor 2C (Homo sapiens) (UniProt P28335); experiment: Antagonist activity at human 5-HT2C receptor expressed in CHO-K1 cells assessed as inhibition of 5HT-induced Ca2+ release at 10 uM by fluorometry assay; format: functional, cell-based
T3 sequence (whole entry): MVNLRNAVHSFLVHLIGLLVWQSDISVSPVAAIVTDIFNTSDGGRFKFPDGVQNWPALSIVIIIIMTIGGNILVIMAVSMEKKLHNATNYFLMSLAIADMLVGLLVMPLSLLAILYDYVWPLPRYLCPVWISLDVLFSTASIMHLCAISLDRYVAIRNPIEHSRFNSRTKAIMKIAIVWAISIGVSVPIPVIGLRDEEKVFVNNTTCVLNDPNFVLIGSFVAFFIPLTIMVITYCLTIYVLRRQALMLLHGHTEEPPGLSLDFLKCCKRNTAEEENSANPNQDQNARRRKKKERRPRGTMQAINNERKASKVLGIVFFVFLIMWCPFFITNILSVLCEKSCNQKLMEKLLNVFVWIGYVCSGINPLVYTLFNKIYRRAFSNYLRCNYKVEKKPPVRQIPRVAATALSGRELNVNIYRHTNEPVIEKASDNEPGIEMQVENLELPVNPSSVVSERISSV

[14] = Apparent permeability of the compound from apical to basolateral side in human vinblastine-treated Caco2 cells; format: ADME, cell-based; details: caco-2
[15] = target: Sodium-dependent serotonin transporter (Rattus norvegicus) (UniProt P31652); experiment: Displacement of [3H]citalopram from SERT in Sprague-Dawley rat whole brain membranes at 1 uM after 1 hr by liquid scintillation spectrometry; format: tissue-based; details: Membrane
Mus musculus [16] = experiment: Induction of motor depression in C57BL/6J mouse assessed as total duration of immobility was measured over a period of 6 mins at 25 to 100 mg/kg, ip by tail suspension test; format: organism-based; details: in vivo, 0.1 h
Mus musculus [17] = experiment: Effect on spontaneous rearing behavior in NMRI mouse at 5 to 80 mg/kg, ip; format: ADME, organism-based; details: in vivo
Mus musculus [18] = experiment: Inhibition of mCPP-induced hypomotility in NMRI mouse assessed as reductiion in vertical hypoactivity at 40 to 80 mg/kg, ip up to 60 mins; format: functional, organism-based
Mus musculus [19] = experiment: Inhibition of hypomotility in NMRI mouse assessed as reduction in rearing at 20 mg/kg, ip in presence of 0.1 to 1 mg/kg, sc selective 5-HT2C antagonist SB-242084; format: functional, organism-based
[20] = target: Sodium-dependent serotonin transporter (Homo sapiens, UniProt P31645); experiment: Binding affinity to SERT (unknown origin)
[21] = target: T2, 5-hydroxytryptamine receptor 2A; experiment: Binding affinity to 5HT2A (unknown origin)
[22] = target: T4, 5-hydroxytryptamine receptor 2C (Homo sapiens, UniProt P28335); experiment: Binding affinity to 5HT2C (unknown origin)
T4 sequence (P28335 whole entry): T3 sequence (whole entry)

Sequence of 5-hydroxytryptamine receptor 1A (Homo sapiens) (P08908 whole entry, looked up): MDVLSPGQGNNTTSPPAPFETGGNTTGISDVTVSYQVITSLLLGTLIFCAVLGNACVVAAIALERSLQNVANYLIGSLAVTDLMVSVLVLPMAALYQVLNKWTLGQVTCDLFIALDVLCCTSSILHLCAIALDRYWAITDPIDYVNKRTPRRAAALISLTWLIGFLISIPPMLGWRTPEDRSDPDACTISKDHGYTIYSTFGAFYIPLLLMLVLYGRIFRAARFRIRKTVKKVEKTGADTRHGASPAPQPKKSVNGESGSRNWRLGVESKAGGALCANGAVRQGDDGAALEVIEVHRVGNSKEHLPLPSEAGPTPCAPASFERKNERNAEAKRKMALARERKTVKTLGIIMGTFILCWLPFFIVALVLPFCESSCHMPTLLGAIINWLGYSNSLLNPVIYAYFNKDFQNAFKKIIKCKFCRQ
Sequence of Sodium-dependent serotonin transporter (Rattus norvegicus, UniProt P31652) (P31652 whole entry): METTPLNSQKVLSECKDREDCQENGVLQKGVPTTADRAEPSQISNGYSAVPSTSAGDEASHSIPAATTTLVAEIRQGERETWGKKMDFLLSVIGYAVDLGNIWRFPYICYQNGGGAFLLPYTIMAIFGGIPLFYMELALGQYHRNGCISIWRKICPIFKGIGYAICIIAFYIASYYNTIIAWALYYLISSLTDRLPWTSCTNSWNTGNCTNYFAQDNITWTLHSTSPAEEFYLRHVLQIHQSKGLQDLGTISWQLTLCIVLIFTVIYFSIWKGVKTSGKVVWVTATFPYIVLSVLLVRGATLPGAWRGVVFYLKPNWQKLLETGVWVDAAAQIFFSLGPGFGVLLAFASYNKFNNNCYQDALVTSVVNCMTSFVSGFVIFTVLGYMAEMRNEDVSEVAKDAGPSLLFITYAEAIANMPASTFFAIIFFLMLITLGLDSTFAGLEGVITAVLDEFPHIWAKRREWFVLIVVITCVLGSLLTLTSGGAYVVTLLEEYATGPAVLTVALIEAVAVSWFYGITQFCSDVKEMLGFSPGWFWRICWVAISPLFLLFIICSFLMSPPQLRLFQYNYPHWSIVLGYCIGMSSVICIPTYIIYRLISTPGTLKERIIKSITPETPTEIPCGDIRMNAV
T2 sequence (P28223 whole entry): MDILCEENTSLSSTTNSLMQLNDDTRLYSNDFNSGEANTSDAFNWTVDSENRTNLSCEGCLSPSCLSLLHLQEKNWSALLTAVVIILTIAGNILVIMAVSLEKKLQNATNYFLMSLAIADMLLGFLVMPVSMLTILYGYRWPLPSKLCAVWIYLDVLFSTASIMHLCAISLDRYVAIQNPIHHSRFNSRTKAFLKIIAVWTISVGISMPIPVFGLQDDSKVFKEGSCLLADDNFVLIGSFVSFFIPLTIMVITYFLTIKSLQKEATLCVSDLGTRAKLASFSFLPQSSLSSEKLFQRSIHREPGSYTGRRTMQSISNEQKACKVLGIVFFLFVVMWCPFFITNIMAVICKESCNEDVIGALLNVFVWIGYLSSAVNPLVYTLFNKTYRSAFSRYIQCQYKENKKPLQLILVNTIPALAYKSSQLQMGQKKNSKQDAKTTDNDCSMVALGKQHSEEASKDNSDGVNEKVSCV
Sequence of 5-hydroxytryptamine receptor 2B (Homo sapiens) (P41595 whole entry): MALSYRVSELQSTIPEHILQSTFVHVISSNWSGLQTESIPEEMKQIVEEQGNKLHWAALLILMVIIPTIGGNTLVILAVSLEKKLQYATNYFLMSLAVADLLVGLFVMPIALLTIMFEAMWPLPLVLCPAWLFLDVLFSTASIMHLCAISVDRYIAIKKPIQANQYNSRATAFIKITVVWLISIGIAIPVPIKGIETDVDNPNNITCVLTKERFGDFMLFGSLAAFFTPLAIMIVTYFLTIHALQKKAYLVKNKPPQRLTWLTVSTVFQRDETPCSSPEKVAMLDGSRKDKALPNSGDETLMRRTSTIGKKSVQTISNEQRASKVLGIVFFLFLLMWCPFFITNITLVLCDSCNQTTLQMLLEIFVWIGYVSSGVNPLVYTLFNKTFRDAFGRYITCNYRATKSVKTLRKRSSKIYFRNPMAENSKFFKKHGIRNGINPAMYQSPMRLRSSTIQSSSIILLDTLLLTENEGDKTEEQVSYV
Sequence of 5-hydroxytryptamine receptor 2A (Rattus norvegicus, UniProt P14842) (P14842 whole entry): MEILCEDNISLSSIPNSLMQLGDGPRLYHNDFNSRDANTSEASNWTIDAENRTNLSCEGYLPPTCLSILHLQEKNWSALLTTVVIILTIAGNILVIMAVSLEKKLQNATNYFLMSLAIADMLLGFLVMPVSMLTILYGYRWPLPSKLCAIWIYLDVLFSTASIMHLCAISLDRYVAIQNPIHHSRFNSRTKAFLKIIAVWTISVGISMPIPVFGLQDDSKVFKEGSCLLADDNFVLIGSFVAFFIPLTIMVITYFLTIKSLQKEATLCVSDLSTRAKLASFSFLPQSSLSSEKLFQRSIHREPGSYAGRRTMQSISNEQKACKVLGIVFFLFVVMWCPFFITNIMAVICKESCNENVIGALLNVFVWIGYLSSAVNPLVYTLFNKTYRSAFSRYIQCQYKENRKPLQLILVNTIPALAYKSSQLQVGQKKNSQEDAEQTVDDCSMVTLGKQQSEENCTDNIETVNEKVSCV
Sequence of Sodium-dependent serotonin transporter (Homo sapiens, UniProt P31645) (P31645 whole entry): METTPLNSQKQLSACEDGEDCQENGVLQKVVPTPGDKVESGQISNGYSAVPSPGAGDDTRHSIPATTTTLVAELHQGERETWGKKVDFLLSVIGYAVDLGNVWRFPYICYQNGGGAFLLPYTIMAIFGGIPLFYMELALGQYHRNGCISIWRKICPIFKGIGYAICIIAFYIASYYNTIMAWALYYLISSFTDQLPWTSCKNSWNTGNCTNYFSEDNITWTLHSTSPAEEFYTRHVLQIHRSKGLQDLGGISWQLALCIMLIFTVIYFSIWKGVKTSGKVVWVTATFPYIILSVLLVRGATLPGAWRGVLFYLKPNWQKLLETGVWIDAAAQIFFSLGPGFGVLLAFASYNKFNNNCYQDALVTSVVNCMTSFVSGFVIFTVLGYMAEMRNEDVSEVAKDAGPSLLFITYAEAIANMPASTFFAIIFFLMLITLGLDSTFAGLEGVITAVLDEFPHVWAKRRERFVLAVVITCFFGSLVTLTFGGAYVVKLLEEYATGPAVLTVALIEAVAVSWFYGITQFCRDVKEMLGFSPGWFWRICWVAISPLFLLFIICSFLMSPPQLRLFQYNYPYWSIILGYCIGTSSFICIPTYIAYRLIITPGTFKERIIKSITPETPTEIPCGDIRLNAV
Sequence of Sodium-dependent serotonin transporter (Rattus norvegicus) (P31652 whole entry): as the sequence (P31652 whole entry) above

SMILES	pKi [2]	CLH [3] [mL/min/g]	pKi [4]	pKi [5]	CLH (Liver microsome) [mL/min/g]	further results
Cc1cc2c(cc1Cl)N(C(=O)Nc1ccc(OC(CCN(C)C)c3ccccc3)cc1)CC2 (stereo unspecified)	9.22	0.9	7.18	6.86	0.06	ED50 (Mus musculus [1]): 17.9 mg/kg
COc1ccc(NC(=O)Nc2ccc(OC(CCN(C)C)c3ccccc3)cc2)cc1Cl (stereo unspecified)		1.25		6.63	0.68	ED50 (Mus musculus [1]): 13.5 mg/kg; inhibition [6]: -4%; Ratio [7]: 2.2; inhibition [8]: 87%
CCn1ccc2cc(NC(=O)Nc3ccc(S(=O)(=O)N(CCN(C)C)Cc4ccccc4)cc3)ccc21	7.58		7.18			
CN(C)CCN(Cc1ccccc1)S(=O)(=O)c1ccc(NC(=O)N2CCN(c3cccc(Cl)c3)CC2)cc1	7.02		7.43			
Cc1ccc(NC(=O)Nc2ccc(OC(CCN(C)C)c3ccccc3)cc2)cc1Cl (stereo unspecified)	8.52					
CN(C)CCN(Cc1ccccc1)S(=O)(=O)c1cccc(N2CCN(c3cccc(Cl)c3)CC2)c1	8.21		6.29			
CN(C)CCN(Cc1ccccc1)S(=O)(=O)c1ccc(C(=O)N2CCN(c3cccc(Cl)c3)CC2)cc1	6.32		6.96			
CN(C)CCN(Cc1ccccc1)S(=O)(=O)c1ccc(NC(=O)Nc2ccc3c(ccn3C)c2)cc1	7.84	1.07	7.58	7.23	3.94	Activity (Mus musculus [9]): Toxic; inhibition [10]: Active; Activity (Mus musculus [11]): inactive; inhibition [6]: -4%; Activity (Mus musculus [12]): Toxic; inhibition [13]: Active; Ratio [7]: 2.2; inhibition [8]: 86%; Papp A→B [14]: 8.6 ×10⁻⁶ cm/s
Cc1cc2c(cc1Cl)N(C(=O)Nc1ccc(S(=O)(=O)N(CCN(C)C)Cc3ccccc3)cc1)CC2	7.36					inhibition [15]: 11%
Cc1cc2c(cc1Cl)N(C(=O)Nc1ccc(Oc3cccnc3C)nc1)CC2 [SB-242084]	9.80		5.75	6.56		
Cc1ccc(NC(=O)Nc2ccc(S(=O)(=O)N(CCN(C)C)Cc3ccccc3)cc2)cc1Cl	8.35		6.68			
CN(C)CCN(Cc1ccccc1)S(=O)(=O)c1ccc(N2CCN(c3cccc(Cl)c3)CC2)cc1	8.09	1.57	7.53	8.00	1.43	Activity (Mus musculus [16]): Toxic; inhibition [10]: Active; Activity (Mus musculus [17]): Toxic; inhibition [6]: -7%; inhibition [13]: Active; Activity (Mus musculus [18]): inactive; inhibition [8]: 82%; Activity (Mus musculus [19]): inactive
CN(C)CCN(Cc1ccccc1)S(=O)(=O)c1ccc(I)cc1	7.94	14.19	7.69	8.52	1.36	pKi [20]: 7.52; pKi [21]: 8.74; pKi [22]: 8.10
Clc1cccc(N2CCNCC2)c1 [CHLOROPHENYLPIPERAZINE]						pKi [20]: 6.57
COc1ccc(NC(=O)Nc2ccc(S(=O)(=O)N(CCN(C)C)Cc3ccccc3)cc2)cc1Cl	7.79		7.03			
CN(C)CCC(Oc1ccc(NC(=O)Nc2ccc3c(ccn3C)c2)cc1)c1ccccc1 (stereo unspecified)		3.25		6.62	2.66	Ratio [7]: 5.3
